Results taken from US7211576B2, “Diaminothiazoles” (Hoffmann-La Roche Inc., priority 2004, dated 2007).

Columns and labels:
human cyclin E-CDK2 = human cyclin E-CDK2 (Homo sapiens, UniProt P24941); assay: FlashPlate kinase assay, cyclin E-CDK2; assay type: biochemical; conditions: Rb protein substrate, 1 μM ATP, 33P-ATP, 30 minutes room temperature
Procedure: (§1) To determine inhibition of Cdk4, Cdk2 and Cdk1 activity, kinase assays were conducted using FlashPlate™ assays (NEN™-Life Science Products). FlashPlate assays were performed using recombinant human cyclin B-CDK1, human cyclin E-CDK2 or human cyclin D1-CDK4 complexes. GST-cyclinE (GST-cycE), CDK2, GST-cyclinB (GST-cycB), CDK1, GST-CDK4 and cyclin D1 (cycD1) cDNA clones in baculovirus vectors were provided by Dr. W. Harper at the Baylor College of Medicine, Houston, Tex. Proteins were co-expressed in High Five™ insect cells and the complex was purified on glutathione Sepharose resin (Pharmacia, Piscataway, N.J.) as previously described (Harper, J. W. et al. Cell 1993, 75, 805–816). A 6×-Histidine tagged truncated form of retinoblastoma (Rb) protein (amino acid 386–928) was used as the substrate for the cycD1-CDK4, cycB-CDK1 and the cycE-CDK2 assays (the expression plasmid was provided by Dr. Veronica Sullivan, Department of Molecular Virology, Roche Research Centre, Welwyn Garden City, United Kingdom). The Rb protein is a natural substrate for phosphorylation by CDK4, CDK2 and CDK1 (see Herwig and Strauss Eur. J. Biochem. Vol. 246 (1997) pp. 581–601 and the references cited therein).
(§2) The expression of the 62Kd protein was under the control of an IPTG inducible promoter in an M15 E. coli strain. Cells were lysed by sonication and purification was carried out by binding lysates at pH 8.0 to a Ni-chelated agarose column pretreated with 1 mM imidazole. The resin was then washed several times with incrementally decreasing pH buffers to pH 6.0, and eluted with 500 mM imidazole. Eluted protein was dialysed against 20 mM HEPES pH 7.5, 30% glycerol, 200 mM NaCl, and 1 mM DTT. Purified Rb fusion protein stocks were quantitated for protein concentration, aliquoted, and stored at −70° C.
(§3) For all three kinase assays reported herein, 96-well FlashPlates were coated with Rb protein at 10 μg/ml, using 100 μl per well. Plates were incubated at 4° C. overnight or at room temperature for 3 hours on a shaker. To control for nonspecific phosphorylation, one row of wells was coated with 100 μl/well coating buffer (20 mM HEPES, 0.2 M NaCl). Plates were then washed twice with wash buffer (0.01% Tween 20 in phosphate-buffered saline). Compounds to be tested (“test compounds”) were added to the wells at 5× final concentration. Reactions were initiated by immediate addition of 40 μl reaction mix (25 mM HEPES, 20 mM MgCl2, 0.002% Tween 20, 2 mM DTT, 1 μM ATP, 4 nM ^33P-ATP) and a sufficient amount of enzyme to give counts that were at least 10-fold above background. Plates were incubated at room temperature on a shaker for 30 minutes. Plates were washed four times with the wash buffer, sealed, and counted on the TopCount scintillation counter (Packard Instrument Co., Downers Grove, Ill.]. The percent inhibition of Rb phosphorylation, which is a measure of the inhibition of CDK activity, was determined according to the following formula:
(§4) [formula] where “test compound” refers to the average counts per minute of the test duplicates, “nonspecific” refers to the average counts per minute when no CyclinD/Cdk4, etc., was added, and “total” refers to the average counts per minute when no compound was added. The IC50 value is the concentration of test compound that reduces by 50% the protein-kinase induced incorporation of the radiolabel under the test conditions described.

human cyclin D1-CDK4 = human cyclin D1-CDK4 (Homo sapiens, UniProt P11802); assay: FlashPlate kinase assay, cyclin D1-CDK4; assay type: biochemical; conditions: Rb protein substrate, 1 μM ATP, 33P-ATP, 30 minutes room temperature; read-out: CDK4 IC50
Sequence of human cyclin D1-CDK4 (P11802 whole entry): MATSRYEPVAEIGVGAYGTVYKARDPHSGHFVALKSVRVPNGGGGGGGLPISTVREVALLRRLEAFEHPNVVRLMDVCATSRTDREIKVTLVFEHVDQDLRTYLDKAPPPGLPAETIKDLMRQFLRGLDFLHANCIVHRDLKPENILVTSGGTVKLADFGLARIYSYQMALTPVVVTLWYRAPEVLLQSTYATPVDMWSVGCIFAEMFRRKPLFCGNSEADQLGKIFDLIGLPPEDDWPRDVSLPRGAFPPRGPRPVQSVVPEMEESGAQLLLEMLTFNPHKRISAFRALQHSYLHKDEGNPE
Sequence of human cyclin D1-CDK4 (P24385 whole entry partner): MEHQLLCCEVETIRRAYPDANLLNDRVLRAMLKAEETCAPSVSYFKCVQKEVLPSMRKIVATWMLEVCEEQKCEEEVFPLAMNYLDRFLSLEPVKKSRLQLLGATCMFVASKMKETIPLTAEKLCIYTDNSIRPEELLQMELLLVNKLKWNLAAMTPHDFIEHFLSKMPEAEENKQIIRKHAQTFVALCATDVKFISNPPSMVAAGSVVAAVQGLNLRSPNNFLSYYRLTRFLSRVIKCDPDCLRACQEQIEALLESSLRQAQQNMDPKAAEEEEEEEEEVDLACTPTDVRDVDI
Procedure: To determine inhibition of Cdk4, Cdk2 and Cdk1 activity, kinase assays were conducted using FlashPlate™ assays (NEN™-Life Science Products). FlashPlate assays were performed using recombinant human cyclin B-CDK1, human cyclin E-CDK2 or human cyclin D1-CDK4 complexes. GST-cyclinE (GST-cycE), CDK2, GST-cyclinB (GST-cycB), CDK1, GST-CDK4 and cyclin D1 (cycD1) cDNA clones in baculovirus vectors were provided by Dr. W. Harper at the Baylor College of Medicine, Houston, Tex.
as §2, §3
[formula] where “test compound” refers to the average counts per minute of the test duplicates, “nonspecific” refers to the average counts per minute when no CyclinD/Cdk4, etc., was added, and “total” refers to the average counts per minute when no compound was added.

[1] = tested on: HCT116, a colorectal carcinoma cell line; assay: Tetrazolium dye (MTT) proliferation assay; assay type: cell-based; conditions: Homo sapiens, HCT-116; HCT116 cells, inhibition of cell proliferation
Procedure: Proliferation was evaluated by the tetrazolium dye assay according to the procedure of Denizot and Lang (Denizot, F. and Lang, R. J Immunol Methods 1986, 89, 271–277). The cell line used was HCT116, a colorectal carcinoma cell line obtained from the American Type Cell Culture Collection (ATCC; Rockville, Md.). The cells were grown in McCoy's 5A medium supplemented with 10% FCS and L-glutamine.
Cells were plated at the appropriate seeding density to give logarithmic growth over the course of the assay in a 96-well tissue culture plate. Plates were incubated overnight at 37° C. in a humidified incubator with 5% CO2. The next day, test compounds were serially diluted to four times the final concentration in the appropriate medium containing 1.2% DMSO. One-fourth final volume of each dilution was added in duplicate to the plates containing cells. The same volume of 1.2% DMSO in medium was added to a row of “control wells” such that the final concentration of DMSO in each well was 0.3%. Wells to which no cells were added served as the “blank.” Wells to which no inhibitor was added served as “no inhibitor control.” The plates were) returned to the incubator, and at set time points (determined by their growth curves) plates were analyzed as described below.
3-(4,5-dimethylthiazole-2-yl)-2,5-diphenyl-2H-tetrazolium bromide (thiazolyl blue; MTT; Sigma) was added to each well to yield a final concentration of 1 mg/ml. Plates were returned to the incubator for 2.5–3 hours at 37° C. The MTT-containing medium was removed and the resulting formazan metabolite was solubilized in 100% ethanol with shaking for 15 minutes at room temperature. Absorbance readings were taken in a microtiter plate reader (Dynatech and Molecular Devices plate readers were used interchangeably) at a wavelength of 570 nm with a 650 nm reference. Percent inhibition (% INH) is calculated by subtracting the absorbance of the blank well from all wells, then subtracting the ratio of the average absorbance of each test duplicate (SAVE) by the average of the controls (CAVE) from 1.00. The final number is then multiplied by 100 (% INH=(1.00−SAVE/CAVE)×100). The concentration at which 50% inhibition of cell proliferation is obtained (the IC50) is determined from the linear regression of a plot of the logarithm of the concentration versus percent inhibition.

human cyclin B-CDK1 = human cyclin B-CDK1 (Homo sapiens, UniProt P06493); assay: FlashPlate kinase assay, cyclin B-CDK1; assay type: biochemical; conditions: Rb protein substrate, 1 μM ATP, 33P-ATP, 30 minutes room temperature
Sequence of human cyclin B-CDK1 (P06493 whole entry): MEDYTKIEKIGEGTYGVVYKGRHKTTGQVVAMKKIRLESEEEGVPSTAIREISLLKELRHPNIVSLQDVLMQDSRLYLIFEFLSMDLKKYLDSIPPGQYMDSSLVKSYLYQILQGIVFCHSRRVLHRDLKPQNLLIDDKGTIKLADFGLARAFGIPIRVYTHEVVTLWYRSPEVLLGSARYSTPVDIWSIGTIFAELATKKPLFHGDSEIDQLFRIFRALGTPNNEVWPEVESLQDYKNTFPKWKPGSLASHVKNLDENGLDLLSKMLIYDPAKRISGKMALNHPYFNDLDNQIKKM
Sequence of human cyclin B-CDK1 (P14635 whole entry partner): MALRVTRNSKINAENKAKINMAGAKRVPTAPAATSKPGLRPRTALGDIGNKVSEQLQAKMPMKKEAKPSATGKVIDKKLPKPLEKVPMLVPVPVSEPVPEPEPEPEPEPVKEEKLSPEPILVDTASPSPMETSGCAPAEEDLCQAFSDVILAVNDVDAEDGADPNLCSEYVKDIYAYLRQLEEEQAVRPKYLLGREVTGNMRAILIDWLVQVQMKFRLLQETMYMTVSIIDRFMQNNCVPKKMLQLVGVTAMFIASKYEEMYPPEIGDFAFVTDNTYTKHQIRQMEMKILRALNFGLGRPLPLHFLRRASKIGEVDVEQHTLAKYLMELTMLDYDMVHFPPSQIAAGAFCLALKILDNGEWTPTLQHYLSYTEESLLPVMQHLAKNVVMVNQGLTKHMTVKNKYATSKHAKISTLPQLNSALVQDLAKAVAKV
Procedure: as §1, §2, §3, §4

Row | SMILES | IC50 (human cyclin E-CDK2) | IC50 (human cyclin D1-CDK4) | IC50 [1] | IC50 (human cyclin B-CDK1)
1 | CN(C)C1CCN(c2ccc(Nc3nc(N)c(C(=O)c4cccc(O)c4)s3)cc2)CC1 [Example 50, {4-Amino-2-[4-(4-dimethylamino-piperidin-1-yl)-phenylamino]-thiazol-5-yl}-(3-hydroxy-phenyl)-methanone] | 2790 nM | 7 nM | 3120 nM | 810 nM
2 | CN(C)C1CCN(c2ccc(Nc3nc(N)c(C(=O)c4ccc5c(c4)OCO5)s3)cc2)CC1 [Example 43, {4-Amino-2-[4-(4-dimethylamino-piperidin-1-yl)-phenylamino]-thiazol-5-yl}-benzo[1,3]dioxol-5-yl-methanone] | 3500 nM | 7 nM | 1610 nM | 500 nM
3 | Nc1nc(Nc2ccc(N3CCC(N4CCCC(O)C4)CC3)cc2)sc1C(=O)c1ccc2c(c1)OCCO2 (stereo not shown) [Example 38, {4-Amino-2-[4-(3-hydroxy-[1,4′]bipiperidinyl-1′-yl)-phenylamino]-thiazol-5-yl}-(2,3-dihydro-benzo[1,4]dioxin-6-yl)-methanone] |  | 5260 nM | 15 nM | 4050 nM
4 | CN(C)C1CCN(c2ccc(Nc3nc(N)c(C(=O)c4ccc(Cl)c([N+](=O)[O-])c4)s3)cc2)CC1 [Example 87, {4-Amino-2-[4-(4-dimethylamino-piperidin-1-yl)-phenylamino]-thiazol-5-yl}-(4-chloro-3-nitro-phenyl)-methanone] | 4440 nM | 133 nM |  | 2990 nM
5 | Nc1nc(Nc2ccc(N3CCC(N4CCCC4)CC3)cc2)sc1C(=O)c1ccc(Cl)c([N+](=O)[O-])c1 [Example 71, {4-Amino-2-[4-(4-pyrrolidin-1-yl-piperidin-1-yl)-phenylamino]-thiazol-5-yl}-(4-chloro-3-nitro-phenyl)-methanone] | 4150 nM | 162 nM |  | 4060 nM
6 | Nc1nc(Nc2ccc(N3CCC(N4CCOCC4)CC3)cc2)sc1C(=O)c1cccc(O)c1 [Example 103, {4-Amino-2-[4-(4-morpholin-4-yl-piperidin-1-yl)-phenylamino]-thiazol-5-yl}-(3-hydroxy-phenyl)-methanone] | 3340 nM | 36 nM |  | 1520 nM
7 | CN(C)C1CCN(c2ccc(Nc3nc(N)c(C(=O)c4ccc(Cl)c(Cl)c4)s3)cc2)CC1 [Example 85, {4-Amino-2-[4-(4-dimethylamino-piperidin-1-yl)-phenylamino]-thiazol-5-yl}-(3,4-dichloro-phenyl)-methanone] | 2260 nM | 98 nM |  | 510 nM
8 | Nc1nc(Nc2ccc(N3CCC(N4CCCCC4)CC3)cc2)sc1C(=O)c1ccc(F)c(F)c1 [Example 59, [4-Amino-2-(4-[1,4′]bipiperidinyl-1′-yl-phenylamino)-thiazol-5-yl]-(3,4-difluoro-phenyl)-methanone] | 3090 nM | 61 nM |  | 4630 nM
9 | CN(C)C1CCN(c2ccc(Nc3nc(N)c(C(=O)c4ccc(O)cc4)s3)cc2)CC1 [Example 46, {4-Amino-2-[4-(4-dimethylamino-piperidin-1-yl)-phenylamino]-thiazol-5-yl}-(4-hydroxy-phenyl)-methanone] | 5670 nM | 55 nM |  | 3810 nM
10 | CN(C)C1CCN(c2ccc(Nc3nc(N)c(C(=O)c4cc(F)cc(F)c4)s3)cc2)CC1 [Example 82, {4-Amino-2-[4-(4-dimethylamino-piperidin-1-yl)-phenylamino]-thiazol-5-yl}-(3,5-difluoro-phenyl)-methanone] | 7840 nM | 84 nM |  | 4270 nM
11 | Cc1cccc(C(=O)c2sc(Nc3ccc(N4CCC(N5CCCCC5)CC4)cc3)nc2N)c1 [Example 111, [4-Amino-2-(4-[1,4′]bipiperidinyl-1′-yl-phenylamino)-thiazol-5-yl]-tolyl-methanone] |  | 25 nM | 1610 nM | 
12 | CCOC(=O)c1cc2ccc(C(=O)c3sc(Nc4ccc(N5CCC(N6CCCC6)CC5)cc4)nc3N)cc2[nH]1 [Example 124] | 4320 nM | 67 nM |  | 11400 nM
13 | Cc1cccc(C(=O)c2sc(Nc3ccc(N4CCC(N(C)C)CC4)cc3)nc2N)c1 [Example 110, {4-Amino-2-[4-(4-dimethylamino-piperidin-1-yl)-phenylamino]-thiazol-5-yl}-tolyl-methanone] |  | 25 nM | 2700 nM | 1990 nM
14 | Nc1nc(Nc2ccc(N3CCC(N4CCCC4)CC3)cc2)sc1C(=O)c1ccc(Cl)c(Cl)c1 [Example 69] | 5620 nM | 102 nM |  | 6230 nM
15 | Nc1nc(Nc2ccc(N3CCC(N4CCCC(O)C4)CC3)cc2)sc1C(=O)c1ccc(F)c(F)c1 (stereo not shown) [Example 75, {4-Amino-2-[4-(3-hydroxy-[1,4′]bipiperidinyl-1′-yl)-phenylamino]-thiazol-5-yl}-(3,4-difluoro-phenyl)-methanone] | 8680 nM | 58 nM |  | 4050 nM
16 | CCNC1CCN(c2ccc(Nc3nc(N)c(C(=O)c4cccc(F)c4)s3)cc2)CC1 [Example 137, {4-Amino-2-[4-(4-ethylamino-piperidin-1-yl)-phenylamino]-thiazol-5-yl}-(3-fluoro-phenyl)-menthanone] |  | 32 nM | 1400 nM | 385 nM
17 | Nc1nc(Nc2ccc(N3CCC(N4CCCCC4)CC3)cc2)sc1C(=O)c1cccc(O)c1 [Example 65, [4-Amino-2-(4-[1,4′]bipiperidinyl-1′-yl-phenylamino)-thiazol-5-yl]-(3-hydroxy-phenyl)-methanone] | 3390 nM | 18 nM |  | 1440 nM
